Test in all cases: NCI anticancer screen, dose series, 48 h
Test [1] relates to SF-268 CNS.
Test [2] concerns SN12C renal.
The test system of test [3] is K-562 leukemia.
Test [4] concerns LOX IMVI melanoma.
The test system of test [5] is MOLT-4 leukemia.
For test [6], the system named is SR leukemia.
The subject of test [7] is U251 CNS.
Test [8] deals with OVCAR-4 ovarian.
The subject of test [9] is CAKI-1 renal.

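Method: 48-hour compound exposure of cells in 96-well plates, five concentrations, linear interpolation of endpoints. Here, GI50 denotes the concentration required for 50% inhibition of growth. TGI: concentration producing complete growth inhibition.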 Where only a bound is given, the exact number is not on record here.

For the compound `CCCCCCCCCCCCN(O)C(=O)c1ccccc1`, the TGI in test [1] is 72.2 µM; in test [2], 71.4 µM; in [3] it was over 100 µM; in test [4], over 100 µM; in [5], over 100 µM; in test [6] it was over 100 µM. In test [7], this compound gave a TGI of 29.8 µM.

On to `Cn1c2c(c3ccccc31)CCN(CCCCN1CCN(c3cccc(Cl)c3)CC1)C2=O`, for which the TGI was 32.2 µM in [8]; over 100 µM in [9]; 49.9 µM in test [1]; 25.8 µM in test [2]; 27.6 µM in test [3]; 31.6 µM in test [5]. Moreover, the TGI in test [7] stood at 24.6 µM.

For the compound `O=C1C2c3[nH]c4ccccc4c3[C@@H]3CCCCC3C2C(=O)N1c1ccccc1` (some centres undefined), the TGI in test [8] is 75 µM; in test [1], 62.9 µM; in test [2] it was 32.4 µM; in [3] it was over 100 µM; in [4] it was 29.8 µM; in test [5], 62.9 µM. Also, the results for the TGI in test [6] and in test [7] were 77.8 µM and 28 µM, respectively.

As for `OC(c1ccccn1)C1CNc2ccccc21` (centres undefined), the TGI in test [8], in test [9], in test [1], in test [2], in [3] and in [4] was over 100 µM throughout. Further, the TGI in test [5] and in test [7] was over 100 µM each time.

Take `O=C(CC(=O)C1CCOC1=O)C(=O)Nc1ccc(Cl)cc1Cl` (centres undefined): the TGI in test [8], in test [9], in [1], in test [2], in test [3] and in [4] was over 100 µM in each case. In test [7], the TGI is over 100 µM.

In the case of `Cc1ccc(C)c(NC(=O)CCc2nc(=S)[nH][nH]2)c1`, the TGI in [8], in test [9], in test [1], in test [2], in test [3] and in [4] was over 100 µM in each case. Also, the TGI in test [5], in test [6] and in test [7] was over 100 µM each time.

As to `COC(OC)[C@@H](C)[C@H](O)[C@](C)(O)C1OC(C)(C)OC(C(C)C=C(C)C)C1C` (some centres undefined), the TGI in test [8], in test [9], in test [1], in [2], in [3] and in test [4] was over 100 µM in each case. Also, the TGI in [5], in [6] and in test [7] was over 100 µM throughout.

As for `CC(=O)NNc1nc(C)c(C(/C=C/c2ccc(Cl)cc2)=N/NC(=O)C[N+](C)(C)C)s1`, the TGI in test [8], in [9], in test [1], in test [3], in test [4] and in test [5] was over 100 µM each time.

In the case of `CC(=O)OC1CC2C(C)(C)C(=O)C=CC2(C)C2CCC3(C)C(c4ccoc4)OC(=O)C4OC43C12C` (centres undefined), the TGI is over 100 µM in [8]; 31.1 µM in test [9]; over 100 µM in test [1]; 17.2 µM in test [2]; over 100 µM in test [3]; 76.4 µM in test [5]. This compound also yielded a TGI in [7] of 26.1 µM.

On to `CCC1CCc2nc3sc(C(=O)Nc4ccccc4C)c(N)c3cc2C1` (centres undefined), for which the GI50 was 0.694 µM in test [8]; 0.451 µM in test [9]; 0.706 µM in test [1]; 8.37 µM in test [2]; 0.775 µM in test [4]; 0.661 µM in test [5]. The values for the GI50 in [6] and in test [7] were 0.196 µM and 0.648 µM, respectively. Besides, the TGI in test [8], in test [9], in test [1], in test [2], in test [4] and in test [5] was over 100 µM throughout. For the same compound, the TGI in test [6] was 14.6 µM; in [7] it was over 100 µM.

As to `COc1cc(-c2cc(=O)c3cc(C)c(C)c(C(=O)O)c3o2)cc(OC)c1OC`, the TGI in test [8], in test [1], in [2], in test [3], in test [4] and in test [5] was over 100 µM throughout. For the same compound, the TGI in test [7] was over 100 µM.

As to `COCCOCC(=O)N(CCn1ccc(NC(c2ccccc2)(c2ccccc2)c2ccccc2)nc1=O)CCn1cnc2nc(N)[nH]c(=O)c21`, the TGI in test [8], in test [9], in [1], in test [2], in test [3] and in test [4] was over 100 µM each time. The TGI in test [5], in test [6] and in [7] was over 100 µM throughout.

Consider `O=C(O)Cn1c(=O)[nH]c(=O)c2c1ncn2Cc1ccccc1`, for which the TGI in [9], in test [1], in test [2], in test [3], in [5] and in test [6] was over 100 µM throughout. In addition, the TGI in test [7] is over 100 µM.

As to `Cc1nc(Nc2ccc([N+](=O)[O-])cc2)sc1C(/C=C/c1ccc(N(C)C)cc1)=N/NC(=O)c1ccccc1`, the TGI in test [8], in test [9], in [1], in test [2], in test [3] and in test [4] was over 100 µM each time. For the same compound, the TGI in test [5], in test [6] and in test [7] was over 100 µM each time.

`COc1ccc(C(=O)c2cc3c(N)c(C(=O)Nc4cccc(Cl)c4C)sc3nc2C)cc1`: the GI50 is 0.851 µM in [8]; 0.0995 µM in test [9]; 0.419 µM in [1]; 0.155 µM in [2]; 0.0901 µM in test [3]; 0.154 µM in test [4]. Also, the GI50 in test [5] is 0.153 µM; in test [6], 0.0613 µM; in [7], 0.104 µM. For the same compound, the TGI in [8], in test [9], in test [1], in test [2], in test [3] and in test [4] was over 25 µM in each case. For the same compound, the TGI is over 25 µM in test [5], 0.511 µM in test [6] and over 25 µM in test [7].

(Values after PubChem BioAssay (NCI).)
